A short description of data set [1]: Approximate (kinetic) solubility estimate by aliquot addition with visual inspection. It is filed as physicochemical. The settings on record: for solubility: thermodynamic from solid, ambient temperature. Here is the method: Weighed samples were treated with aliquots of a solvent or solvent mixture at RT. The mixtures were sonicated between additions to facilitate dissolution. Complete dissolution of the test material was determined by visual inspection. Solubility was estimated based on the total solvent used to provide complete dissolution. The actual solubility may be greater than the value calculated because of the use of solvent aliquots that were too large or due to a slow rate of dissolution. […] If complete dissolution was achieved as a result of only one aliquot addition, the solubility is expressed as “greater than.”
Solubilities were estimated by adding measured aliquots of solvent to weighed amounts of cannabidiol at room temperature (RT). Samples were sonicated in between aliquot additions and dissolution was judged by visual inspection.

Data set [2] in a line: Colour change of solutions from solubility estimates at room temperature. Particulars: acetone, acetonitrile, DMA, DMF, p-dioxane, ethanol, IPOAc, MEK and methanol; after 1-3 days at room temperature. It is filed as physicochemical. The method, then:
Kinetic solubility estimates of cannabidiol were determined in various solvents to aid in designing screening experiments (Tables 1 and 2). Solubilities were estimated by adding measured aliquots of solvent to weighed amounts of cannabidiol at room temperature (RT). Samples were sonicated in between aliquot additions and dissolution was judged by visual inspection. Discoloration of the solutions produced from solubility estimates in acetone, acetonitrile, DMA, DMF, p-dioxane, ethanol, IPOAc, MEK and methanol were observed after 1-3 days at room temperature.

≈ marks a conversion by molar mass, not a printed value.

Broadly, the solubility is the concentration that dissolves in the medium under given conditions. Turning to `C=C(C)[C@@H]1CCC(C)=C[C@H]1c1c(O)cc(CCCCC)cc1O` [Cannabidiol], the solubility was 23 mg/mL (≈ 73.1 mM) in data set [1] (organic solvent or mixture, Acetone); greater than 50 mg/mL in data set [1] (organic solvent or mixture, Acetonitrile); 15 mg/mL (≈ 47.7 mM) in data set [1] (organic solvent or mixture, Cyclohexane); 19 mg/mL (≈ 60.4 mM) in data set [1] (organic solvent or mixture, DCM); 21 mg/mL (≈ 66.8 mM) in data set [1] (organic solvent or mixture, DMSO); greater than 57 mg/mL in data set [1] (organic solvent or mixture, Diethyl Ether). Moreover, the solubility was greater than 46 mg/mL in data set [1] (organic solvent or mixture, EtOAc); 14 mg/mL (≈ 44.5 mM) in data set [1] (organic solvent or mixture, IPA); greater than 68 mg/mL in data set [1] (organic solvent or mixture, IPOAc); greater than 55 mg/mL in data set [1] (organic solvent or mixture, MEK); greater than 59 mg/mL in data set [1] (organic solvent or mixture, MIBK); 34 mg/mL (≈ 108 mM) in data set [1] (organic solvent or mixture, MTBE). Also, the solubility is greater than 57 mg/mL in data set [1] (organic solvent or mixture, MeOH); 29 mg/mL (≈ 92.2 mM) in data set [1] (organic solvent or mixture, NMP); 13 mg/mL (≈ 41.3 mM) in data set [1] (organic solvent or mixture, Octanol); less than 1 mg/mL in data set [1] (organic solvent or mixture, TFE); greater than 71 mg/mL in data set [1] (organic solvent or mixture, THF); greater than 48 mg/mL in data set [1] (organic solvent or mixture, p-dioxane). Besides, the solubility in data set [1] (Water) is less than 1 mg/mL. Also, in data set [1] (water, aliquot addition method), the Aqueous solubility estimate was less than 1 mg/mL. Further, the “Discoloration of solutions from solubility estimates” value in data set [2] is listed as “Discoloration”.

The record behind these values is patent publication US12655083B2, “Solid forms of cannabidiol and uses thereof” (Artelo Biosciences, Inc., priority 2017, dated 2026).
